Reference: US6573258B2, “Photodynamic porphyrin antimicrobial agents” (Frontier Scientific, Inc., priority 2000, dated 2003)

How the values were obtained:
E. coli cells [1] = assay: Growth inhibition after 5 min incubation with porphyrin and white-light irradiation; format: cell-based, Escherichia coli; conditions: for concentration photoinducing significant bacteriostatic and bactericidal action: both cell strains (S. aureus and E. coli)
Description: (§1) The abilities of various examples of the porphyrins of the instant invention to kill Gram-negative and Gram-positive bacteria were tested against that of T4MPyP. Each of the compounds was incubated with E. coli and S. aureus cells for 5 minutes, following which the samples were irradiated with white light for varying lengths of time.
(§2) Escherichia coli strain O4 (wild type), and methycillin-resistant Staphylococcus aureus, strain MRSA 110, were grown aerobically at 37° C. in brain heart infusion broth (BHI, Difco, Detroit, Mich.). The cells in the stationary phase of growth were harvested by centrifugation (2,000 g for 15 min) of the broth cultures, washed twice with 10 mM PBS at pH=7.4, containing 2.7 mM KCl and 0.14 M NaCl, and suspended in PBS at a density of 10^8-10^9 cells/ml (absorbance of about 0.7 at 650 nm). Aliquots of 5 ml of the cell suspension were incubated with 1 μM porphyrins for 5 min in the dark at room temperature. After incubation the suspensions were centrifuged and the cell pellets were collected immediately or washed with PBS and centrifuged again for one or three times.
(§3) The toxic effects of T4MPyP and its analogues on E. coli and S. aureus cells were evaluated by measuring the extent of growth inhibition (bacteriostatic effect) and reduction of survival (cytocidal/bacteriocidal effect) following treatment with porphyrin in the dark or upon light exposure.
(§4) In all cases, 5 ml of the cell suspension (10^8-10^9 cells/ml) were incubated for 5 min in the dark at room temperature with the selected photosensitizer at concentrations ranging between 0.5 and 10 μM. After dark-incubation, some of the cell samples were irradiated with white light (150 mW/cm^2). During irradiation, (up to 30 min) the cells were kept at 37° C. and magnetically stirred. The treated and untreated control cells were diluted with BHI and maintained at 37° C. while the absorbance of the suspension at 650 nm was monitored at predetermined time periods for determining growth curves. The percent of growth inhibition in the treated cells was calculated by the following equation: […]
(§5) where AX, and AC are the absorbances measured after 3 h incubation, respectively, for the treated and control cell suspensions, respectively, while A0 represents the initial absorbance and the AC is that of the control cell suspension after 5 hours incubation. Cell survival was determined by plating serially diluted aliquots of treated and untreated cells on brain heart agar and counting the number of colonies after 18-24 h incubation at 37° C.

E. coli cells [2] = assay: Dark toxicity of porphyrins on bacteria cells; format: cell-based, Escherichia coli; conditions: 10 μM, 5 min incubation in the dark
Description: as §3, §4, §5

[3] = Fluorescence decay times (phase-shift method); format: physicochemical; conditions: ca. 5 μM, air-equilibrated buffer pH 7.4, λexc = 420 nm, λem > 600 nm; for A1, relative weight of fast component: dihydrochloride salt
Description: Fluorescence decay times of the porphyrin samples were measured by means of a Spex Fluorolog-τ2 spectrofluorimeter based on the phase-shift method. The frequency response curves (phase-shift and demodulation ratio vs. frequency) were globally analyzed.

E. coli cells [4] = assay: Decrease of cell survival (colony counting) after white-light irradiation; format: cell-based, Escherichia coli; conditions: 1 μM porphyrin; for DECREASE OF SURVIVAL (log): 5 min dark incubation, 15 min white light (150 mW/cm^2)
Description: as §2, §3, §4, §5

[5] = Fluorescence quantum yields; format: physicochemical; conditions: for ΦF (PBS), fluorescence quantum yield: in PBS; for ΦF (SDS), fluorescence quantum yield: in aqueous 2% SDS
Description: Ground-state absorption spectra of the porphyrins (ca. 5 μM in phosphate buffered saline (PBS, pH=7.4) were recorded with a Lambda 5 Perkin-Elmer spectrophotometer. Fluorescence spectra, corrected for the instrumental response, were recorded with a Perkin-Elmer (model LS) or a Spex (Fluorolog F112) spectrofluorimeter. Fluorescence quantum yields ((IF) of the porphyrin derivatives in PBS and in water containing 2% sodium dodecylsulfate (a detergent, hereinafter “SDS”) were determined by measuring the area of the emission spectrum (600-800 nm range, excitation at 560 nm) and using tetra-n-propylporphycene in toluene as a reference (ΦF=0.38). Braslavsky et al, J. Photochem. Photobiol. B: Biol., 40:191-198 (1997). In all cases, the absorbance of the sample and the reference solution were kept below 0.1 at the excitation wavelength to minimize inner filter effects.

S. aureus cells [6] = assay: Dark toxicity of porphyrins on bacteria cells; format: cell-based, Staphylococcus aureus; conditions: 10 μM, 5 min incubation in the dark
Description: as §3, §4, §5

[7] = Photosensitized photooxidation of NATA; conditions: 10 μM NATA; for ΦSDS × 10^3, quantum yield for photo-oxidation of NATA: aqueous 2% SDS; for ΦPBS × 10^3, quantum yield for photo-oxidation of NATA: phosphate buffered solution
Description: The photosensitizing activity of the various porphyrins was tested by measuring their efficiency in promoting the photooxidation of N-acetyl-L-tryptophanamide (NATA, Aldrich Chem. Co.) as a model biological substrate. Toward this aim, 10 μM NATA in PBS or in water containing 2% SDS was irradiated in the presence of 5 μM porphyrin. The irradiations were performed with 515±10 nm-light isolated by means of an interference filter (Balzers, Liechtenstein), while the solution (2 ml) was magnetically stirred in a quartz cuvette of 1-cm optical path and kept at 25° C. The photosensitized modification of NATA was followed by measuring the decrease in the intensity of its fluorescence emission spectrum (300-450 nm) upon excitation with 290 nm-light at various irradiation times. Plots of in F°/F (where F° and F represent the fluorescence intensity at time 0 and t, respectively) vs. the irradiation time allowed the first-order rate constants of the photo-process to be derived.
The intensity of the incident light was measured by using Aberchrome 999P in toluene as an actinometer. Heller, EPA Newslett., 29:49-60 (1987). This parameter was used to calculate the quantum yields of NATA photooxidation sensitized by the different porphyrins.

[8] = Triplet state properties by laser flash photolysis; format: physicochemical; conditions: phosphate-buffered solution; for φT, triplet quantum yield: ε920 estimated by total depletion method
Description: Laser flash photolysis experiments were carried out by use of the setup previously described in Gomer, et al., with excitation wavelengths of 355 and 420 nm. Gorner, et al., Photoinduced electron transfer between styrylanthracenes and electron donors and acceptors in acetonitrile, J. Chem. Soc. Faraday Trans., vol. 88, pp. 29-34 (1992).
The transient spectra of the porphyrins in buffer solutions were recorded upon laser flash photolysis excitation at 355 and 420 nm. […] The decay (growth) of the signal (bleaching) occurred according to first-order kinetics and led to a complete recovery of the ground state with a lifetime of 91 μs. […] This also allowed the triplet quantum yield (φT) to be determined (see Table 3), after calibration of the experimental setup by use of an optically-matched solution of benzophenone in acetonitrile.

S. aureus cells [9] = assay: Growth inhibition after 5 min incubation with porphyrin and white-light irradiation; format: cell-based, Staphylococcus aureus
Description: as §1, §2, §3
[…] After dark-incubation, some of the cell samples were irradiated with white light (150 mW/cm^2). During irradiation, (up to 30 min) the cells were kept at 37° C. and magnetically stirred. The treated and untreated control cells were diluted with BHI and maintained at 37° C. while the absorbance of the suspension at 650 nm was monitored at predetermined time periods for determining growth curves. The percent of growth inhibition in the treated cells was calculated by the following equation:
as §5

[10] = 0.5 μM, incubated 5 min, white light 5 min
[11] = 0.5 μM, incubated 5 min, white light 10 min
[12] = Table 5: 0.5 μM, 5 min incubation, 5 min white light (150 mW/cm^2)
[13] = Table 5: 1 μM, 5 min incubation, 5 min white light (150 mW/cm^2)

SMILES: C[n+]1ccc(-c2c3nc(c(-c4cc[n+](C)cc4)c4ccc([nH]4)c(-c4cc[n+](Cc5ccccc5)cc4)c4nc(c(-c5cc[n+](C)cc5)c5ccc2[nH]5)C=C4)C=C3)cc1.Cl.Cl.[Cl-].[Cl-].[Cl-].[Cl-] [mono-benzyl, 5-(4-N-benzylpyridyl)-10,15,20-tris(4-N-methylpyridyl)-21H,23H-porphine tetrachloride dihydrochloride salt]
- Growth inhibition (%) E. coli (E. coli cells [1]; 10 μM, incubated 5 min, white light 5 min): 54.1%
- Growth inhibition (%) E. coli (E. coli cells [1]; 10 μM, incubated 5 min, white light 10 min): 100%
- photodynamic effectiveness relative to base porphyrin (E. coli cells [1]; same conditions as base porphyrin): about twice as effective as the base porphyrin

SMILES: CCCCCCCCCCCCCCCCCC[n+]1ccc(-c2c3nc(c(-c4cc[n+](C)cc4)c4ccc([nH]4)c(-c4cc[n+](C)cc4)c4nc(c(-c5cc[n+](C)cc5)c5ccc2[nH]5)C=C4)C=C3)cc1.Cl.Cl.[Cl-].[Cl-].[Cl-].[Cl-] [Porphyrin C18, 5-(4-N-octadecylpyridyl)-10,15,20-tris(4-N-methylpyridyl)-21H,23H-porphine tetrachloride dihydrochloride salt]
- inhibition of bacterial cell growth in the dark (E. coli cells [2]): complete inhibition
- A2, relative weight of slow component [3]: 97%
- τ1, fluorescence decay time of fast component [3]: 1.4 ns
- τ2, fluorescence decay time of slow component [3]: 9.0 ns
- A1, relative weight of fast component [3]: 3%
- DECREASE OF SURVIVAL (log) (E. coli cells [4]): −2.78 ± 0.62 log
- ΦF (PBS), fluorescence quantum yield [5]: 0.022
- ΦF (SDS), fluorescence quantum yield [5]: 0.024
- Growth inhibition (%) E. coli (E. coli cells [1]; [10]): 26%
- Growth inhibition (%) E. coli (E. coli cells [1]; [11]): 56.6%
- Growth inhibition (%) E. coli (E. coli cells [1]; 1 μM, incubated 5 min, white light 5 min): 57.9%
- Growth inhibition (%) E. coli (E. coli cells [1]; 1 μM, incubated 5 min, white light 10 min): 95.7%
- Growth inhibition (%) E. coli (E. coli cells [1]; [12]): 26%
- Growth inhibition (%) E. coli (E. coli cells [1]; [13]): 58%
- concentration photoinducing significant bacteriostatic and bactericidal action (E. coli cells [1]): ten-fold lower concentration
- inhibition of bacterial cell growth in the dark (S. aureus cells [6]): complete inhibition
- ΦSDS × 10^3, quantum yield for photo-oxidation of NATA [7]: 0.80 ± 0.04
- ΦPBS × 10^3, quantum yield for photo-oxidation of NATA [7]: 0.14 ± 0.01
- λmax of transient spectrum [8]: 470 nm
- λmin of transient spectrum [8]: 420 nm
- φ×ε920 [8]: 2700 M⁻¹ cm⁻¹
- τ^N2, triplet lifetime [8]: 74 μs
- τ^air, triplet lifetime [8]: 21 μs
- φT, triplet quantum yield [8]: 0.17
- Growth inhibition (%) S. aureus (S. aureus cells [9]; 0.1 μM, incubated 5 min, white light 5 min): 12.7%
- Growth inhibition (%) S. aureus (S. aureus cells [9]; 0.1 μM, incubated 5 min, white light 10 min): 20.2%
- Growth inhibition (%) S. aureus (S. aureus cells [9]; [10]): 41.4%
- Growth inhibition (%) S. aureus (S. aureus cells [9]; [11]): 58.1%
- Growth inhibition (%) S. aureus (S. aureus cells [9]; [12]): 42%
- Growth inhibition (%) S. aureus (S. aureus cells [9]; [13]): 59%

SMILES: CCCCCCCCCCCCCC[n+]1ccc(-c2c3nc(c(-c4cc[n+](C)cc4)c4ccc([nH]4)c(-c4cc[n+](C)cc4)c4nc(c(-c5cc[n+](C)cc5)c5ccc2[nH]5)C=C4)C=C3)cc1.Cl.Cl.[Cl-].[Cl-].[Cl-].[Cl-] [Porphyrin C14, 5-(4-N-tetradecylpyridyl)-10,15,20-tris(4-N-methylpyridyl)-21H,23H-porphine tetrachloride dihydrochloride salt]
- inhibition of bacterial cell growth in the dark (E. coli cells [2]): complete inhibition
- A2, relative weight of slow component [3]: 98%
- τ1, fluorescence decay time of fast component [3]: 1.0 ns
- τ2, fluorescence decay time of slow component [3]: 6.5 ns
- A1, relative weight of fast component [3]: 2%
- DECREASE OF SURVIVAL (log) (E. coli cells [4]): −4.35 ± 0.45 log
- drop in survival of E. coli cells (E. coli cells [4]; 15 min irradiation): 4 log
- ΦF (PBS), fluorescence quantum yield [5]: 0.019
- ΦF (SDS), fluorescence quantum yield [5]: 0.022
- Growth inhibition (%) E. coli (E. coli cells [1]; [10]): 81.8%
- Growth inhibition (%) E. coli (E. coli cells [1]; [11]): 100%
- Growth inhibition (%) E. coli (E. coli cells [1]; [12]): 82%
- concentration photoinducing significant bacteriostatic and bactericidal action (E. coli cells [1]): ten-fold lower concentration
- inhibition of bacterial cell growth in the dark (S. aureus cells [6]): complete inhibition
- ΦSDS × 10^3, quantum yield for photo-oxidation of NATA [7]: 0.71 ± 0.03
- ΦPBS × 10^3, quantum yield for photo-oxidation of NATA [7]: 0.66 ± 0.10
- λmax of transient spectrum [8]: 480 nm
- λmin of transient spectrum [8]: 425 nm
- φ×ε920 [8]: 9762 M⁻¹ cm⁻¹
- τ^N2, triplet lifetime [8]: 70 μs
- τ^air, triplet lifetime [8]: 20 μs
- φT, triplet quantum yield [8]: 0.48
- Growth inhibition (%) S. aureus (S. aureus cells [9]; [10]): 72.7%
- Growth inhibition (%) S. aureus (S. aureus cells [9]; [11]): 88.9%
- Growth inhibition (%) S. aureus (S. aureus cells [9]; [12]): 73%
